A word on the pIC50: it is the IC50 on a negative log10 scale, so that one unit is a factor of ten.

pIC50: −log10 of the molar value.

In one assay the target is T1, human complement factor D (Homo sapiens, UniProt P00746).
T1 construct: purchased R&D Systems 1824-SE
T1 sequence (P00746 26-253): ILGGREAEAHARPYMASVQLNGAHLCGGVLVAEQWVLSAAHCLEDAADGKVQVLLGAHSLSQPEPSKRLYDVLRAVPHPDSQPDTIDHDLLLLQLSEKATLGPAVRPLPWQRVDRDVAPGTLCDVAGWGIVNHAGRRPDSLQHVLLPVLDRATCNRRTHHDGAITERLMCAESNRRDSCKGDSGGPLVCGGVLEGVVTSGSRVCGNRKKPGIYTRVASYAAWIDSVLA
Kind of assay: In vitro enzyme inhibition (Z-Lys-SBzl/DTNB absorbance assay). The assay is classed as biochemical.
Conditions: not given
The procedure: The ability of the compounds disclosed herein to inhibit human complement factor D inhibitory activity was quantified according to the 12-step protocol provided below. • 1. Prepare assay buffer: 50 mM Tris/HCl, pH 7.5, 1 M NaCl. • 2. Dilute 10 mM Complement Factor D inhibitor Nafamostat Mesilate (Selleckchem, Catalog #S1386) solution from 10000 μM to 9.77 μM in 100% DMSO, 8 concentrations. Then dilute the serial concentrations of Nafamostat Mesilate 20-fold in assay buffer. • 3. Add 10 μl diluted Nafamostat Mesilate duplicated into each of the inhibitor control well of a 96-well plate (Corning, Catalog #3599). Final concentrations were 50 μM, 25 μM, 12.5 μM, 6.25 μM, 3.125 μM, 0.781 μM, 0.195 μM and 0.049 μM. 0.5% DMSO was in each well finally. • 4. Dilute 20 mM test compounds from 10000 μM to […] in 100% DMSO, 6-fold dilution, 8 concentrations. Then dilute the serial concentrations of test compounds 20-fold in assay buffer. • 5. Add 10 μl diluted test compounds duplicated into the 96-well plate. Final concentrations were 50 μM, 8.33 μM, 1.39 μM, 0.23 μM, 0.0386 μM, 0.0064 μM, 0.0011 μM and 0.0002 μM. 0.5% DMSO was in each well finally. • 6. Dilute 20 mM substrate Z-Lys-SBzl (Bachem, Cat #M-1300) to 200 μM in assay buffer with 200 μM DTNB(Sigma, Catalog #D8130). • 7. Dilute 738 ng/μL Complement Factor D (R&D Systems, Catalog #1824-SE) to 6.25 ng/μL in assay buffer. Add 40 μl diluted Complement Factor D in the 96-well plate. • 8. Positive control well contains Complement Factor D without test compound. Negative control well contains neither Complement Factor D nor test compound. Using assay buffer, bring the total volume of all controls to 50 μl. • 9. Pre-incubate the plate for 5 min at room temperature. • 10. Add 50 μl of diluted substrate/DTNB mixture into each well. Mix the reagents completely by shaking the plate gently for 30 sec. • 11. For kinetic reading: Immediately start measuring absorbance (A405 nm) continuously and record data every 30sec for 60 min. • 12. Data analysis • Inhibition activity of compound was evaluated by IC50. IC50 was calculated according the dose-response curve of compound fitted using GraphPadPrism with “log(inhibitor)-response (variable slope)” equation. • % inhibition was calculated by using following equation:
[formula] • Mean(NC): The average value of the negative control wells' A405 nm values. • Mean(PC): The average value of the positive control wells' A405 nm values.
The ability of the compounds in Table 2 to inhibit human complement factor D inhibitory activity was determined.
On to `CC(=O)N1CCN(C(=O)Cn2nc(C(N)=O)c3ccccc32)[C@H](C(=O)Nc2cccc(C(F)(F)F)n2)C1` [Example 30, (S)-1-(2-(4-acetyl-2-((6-(trifluoromethyl)pyridin-2-yl)carbamoyl)piperazin-1-yl)-2-oxoethyl)-1H-indazole-3-carboxamide], for which the pIC50 is 5.00 to 6.00.

Staying with this assay, now noted: Complement Factor D (R&D Systems), substrate Z-Lys-SBzl, A405 nm; read-out: CFD IC50.
As for `NC(=O)c1nn(CC(=O)N2C(C(=O)NCc3cccc(Cl)n3)[C@@H]3C[C@@H](O)[C@H]2[C@H]3O)c2ccccc12` (stereo partly drawn) [Example 154, 1-(2-((1S,4S,6R,7S)-3-(((6-chloropyridin-2-yl)methyl)carbamoyl)-6,7-dihydroxy-2-azabicyclo[2.2.1]heptan-2-yl)-2-oxoethyl)-1H-indazole-3-carboxamide], the pIC50 is 5.00 to 6.00.
With `NC(=O)c1nn(CC(=O)N2[C@@H](C(=O)Nc3cccc(Cl)n3)C[C@H]3CCC[C@H]32)c2ccccc12` [Example 171, 1-(2-((2R,3aR,6aR)-2-((6-chloropyridin-2-yl)carbamoyl)hexahydrocyclopenta[b]pyrrol-1(2H)-yl)-2-oxoethyl)-1H-indazole-3-carboxamide], the pIC50 is < 5.00.
Take `NC(=O)c1nn(CC(=O)N2[C@@H]3CC[C@@H](C3)[C@H]2C(=O)NCc2cccc(Cl)c2F)c2ccc(CC(=O)O)cc12` [Example 131]: the pIC50 is 5.00 to 6.00.
Regarding `NC(=O)c1nn(CC(=O)N2[C@@H]3CC[C@@H](C3)[C@H]2C(=O)NCc2ccc3[nH]cc(Cl)c3c2F)c2ccccc12` [Example 47, 1-(2-((1R,3S,4S)-3-(((3-chloro-4-fluoro-1H-indol-5-yl)methyl)carbamoyl)-2-azabicyclo[2.2.1]heptan-2-yl)-2-oxoethyl)-1H-indazole-3-carboxamide], the pIC50 is < 5.00.
Still for that read-out and setting: under `NC(=O)c1nn(CC(=O)N2[C@H](C(=O)Nc3cccc(Cl)n3)C[C@@H]3CCC[C@@H]32)c2cc(Cl)ccc12` [Example 182, 6-chloro-1-(2-((2S,3aS,6aS)-2-((6-chloropyridin-2-yl)carbamoyl)hexahydrocyclopenta[b]pyrrol-1(2H)-yl)-2-oxoethyl)-1H-indazole-3-carboxamide] stands 6.00 to 7.00; under `NC(=O)c1nn(CC(=O)N2[C@@H]3CC[C@@H](C3)[C@H]2C(=O)Nc2cccc(F)n2)c2ccccc12` [Example 53, 1-(2-((1R,3S,4S)-3-((6-fluoropyridin-2-yl)carbamoyl)-2-azabicyclo[2.2.1]heptan-2-yl)-2-oxoethyl)-1H-indazole-3-carboxamide], 5.00 to 6.00.
Regarding `NC(=O)c1nn(CC(=O)N2[C@H](C(=O)NCc3cccc(Cl)c3F)C[C@@H]3CCC[C@@H]32)c2ccc(C3CC3)cc12` [Example 199, 1-(2-((2S,3aS,6aS)-2-((3-chloro-2-fluorobenzyl)carbamoyl)hexahydrocyclopenta[b]pyrrol-1(2H)-yl)-2-oxoethyl)-5-cyclopropyl-1H-indazole-3-carboxamide], the pIC50 was 6.00 to 7.00.
The same measure, in the same setting: to `NC(=O)c1nn(CC(=O)N2[C@@H]3CC[C@@H](C3)[C@H]2C(=O)Nc2ccc(Cl)c(Cl)n2)c2ccccc12` [Example 76, 1-(2-((1R,3S,4S)-3-((5,6-dichloropyridin-2-yl)carbamoyl)-2-azabicyclo[2.2.1]heptan-2-yl)-2-oxoethyl)-1H-indazole-3-carboxamide] belongs 6.00 to 7.00; to `NC(=O)c1nn(CC(=O)N2[C@@H]3CC[C@@H](C3)[C@H]2C(=O)NCc2cc(Cl)ccc2Cl)c2ccccc12` [Example 69, 1-(2-((1R,3S,4S)-3-((2,5-dichlorobenzyl)carbamoyl)-2-azabicyclo[2.2.1]heptan-2-yl)-2-oxoethyl)-1H-indazole-3-carboxamide], 5.00 to 6.00; to `CC(C)(C)OC(=O)N1CCN(C(=O)Cn2nc(C(N)=O)c3ccccc32)[C@H](C(=O)Nc2cccc(Cl)n2)C1` [Example 25, (S)-tert-butyl 4-(2-(3-carbamoyl-1H-indazol-1-yl)acetyl)-3-((6-chloropyridin-2-yl)carbamoyl)piperazine-1-carboxylate], 5.00 to 6.00.
For `CC(O)c1nn(CC(=O)N2[C@@H]3CC[C@@H](C3)[C@H]2C(=O)Nc2cccc(Cl)n2)c2ccccc12` (stereo partly drawn) [Example 85, (1R,3S,4S)-N-(6-chloropyridin-2-yl)-2-(2-(3-(1-hydroxyethyl)-1H-indazol-1-yl)acetyl)-2-azabicyclo[2.2.1]heptane-3-carboxamide], the pIC50 is < 5.00.
On the same count and under the same terms, to `NC(=O)c1nn(CC(=O)N2[C@@H]3CC[C@@H](C3)[C@H]2C(=O)NCc2cccc(Cl)c2F)c2cc(CC(=O)O)ccc12` [Example 127, 2-(3-carbamoyl-1-(2-((1R,3S,4S)-3-((3-chloro-2-fluorobenzyl)carbamoyl)-2-azabicyclo[2.2.1]heptan-2-yl)-2-oxoethyl)-1H-indazol-6-yl)acetic acid] belongs 5.00 to 6.00; to `NC(=O)c1nn(CC(=O)N2[C@@H]3CC[C@@H](C3)[C@H]2C(=O)Nc2ccnc(Cl)c2)c2ccccc12` [Example 57, 1-(2-((1R,3S,4S)-3-((2-chloropyridin-4-yl)carbamoyl)-2-azabicyclo[2.2.1]heptan-2-yl)-2-oxoethyl)-1H-indazole-3-carboxamide], 5.00 to 6.00.
`NC(=O)c1nn(CC(=O)N2[C@@H]3CC[C@@H](C3)[C@H]2C(=O)NC(CC(=O)O)c2cccc(Cl)c2F)c2ccccc12` (stereo partly drawn) [Example 143, 3-((1R,3S,4S)-2-(2-(3-carbamoyl-1H-indazol-1-yl)acetyl)-2-azabicyclo[2.2.1]heptane-3-carboxamido)-3-(3-chloro-2-fluorophenyl)propanoic acid]: the negative logarithm of the IC50 (pIC50) was 5.00 to 6.00.
Regarding `N#Cc1ccc2c(c1)c(C(N)=O)nn2CC(=O)N1[C@@H]2CC[C@@H](C2)[C@H]1C(=O)Nc1cccc(Cl)n1` [Example 81, 1-(2-((1R,3S,4S)-3-((6-chloropyridin-2-yl)carbamoyl)-2-azabicyclo[2.2.1]heptan-2-yl)-2-oxoethyl)-5-cyano-1H-indazole-3-carboxamide], the pIC50 is 6.00 to 7.00.
In the case of `NC(=O)c1nn(CC(=O)N2[C@H]3CC[C@H](C3)[C@@H]2C(=O)Nc2cccc(Cl)n2)c2ccccc12` [Example 19, 1-(2-((1S,3R,4R)-3-((6-chloropyridin-2-yl)carbamoyl)-2-azabicyclo[2.2.1]heptan-2-yl)-2-oxoethyl)-1H-indazole-3-carboxamide], the pIC50 is 6.00 to 7.00.
For `COc1cc(Cl)nc(NC(=O)[C@@H]2[C@H]3CC[C@H](C3)N2C(=O)Cn2nc(C(N)=O)c3ccccc32)c1` [Example 97, 1-(2-((1R,3S,4S)-3-((6-chloro-4-methoxypyridin-2-yl)carbamoyl)-2-azabicyclo[2.2.1]heptan-2-yl)-2-oxoethyl)-1H-indazole-3-carboxamide], the pIC50 is 6.00 to 7.00.
Consider `CC(=O)c1nn(CC(=O)N2[C@@H]3CC[C@@H](C3)[C@H]2C(=O)Nc2cccc(Cl)n2)c2ccc(Br)cc12` [Example 90, (1R,3S,4S)-2-(2-(3-acetyl-5-bromo-1H-indazol-1-yl)acetyl)-N-(6-chloropyridin-2-yl)-2-azabicyclo[2.2.1]heptane-3-carboxamide], for which the pIC50 is 6.00 to 7.00.
The same measure, in the same setting: to `CC(=O)c1nn(CC(=O)N2[C@@H]3CC[C@@H](C3)[C@H]2C(=O)Nc2cccc(Cl)n2)c2ccc(C#N)cc12` [Example 92, (1R,3S,4S)-2-(2-(3-acetyl-5-cyano-1H-indazol-1-yl)acetyl)-N-(6-chloropyridin-2-yl)-2-azabicyclo[2.2.1]heptane-3-carboxamide] belongs 6.00 to 7.00.
On to `NC(=O)c1nn(CC(=O)N2[C@@H]3CC[C@@H](C3)[C@H]2C(=O)NCc2cccc(Cl)c2F)c2cnccc12` [Example 39, 1-(2-((1R,3S,4S)-3-((3-chloro-2-fluorobenzyl)carbamoyl)-2-azabicyclo[2.2.1]heptan-2-yl)-2-oxoethyl)-1H-pyrazolo[3,4-c]pyridine-3-carboxamide], for which the pIC50 is 6.00 to 7.00.
As to `NC(=O)c1nn(CC(=O)N2[C@@H]3CC[C@@H](C3)[C@H]2C(=O)Nc2cccc(-c3ccccc3Cl)n2)c2ccccc12` [Example 44, 1-(2-((1R,3S,4S)-3-((6-(2-chlorophenyl)pyridin-2-yl)carbamoyl)-2-azabicyclo[2.2.1]heptan-2-yl)-2-oxoethyl)-1H-indazole-3-carboxamide], the pIC50 is 6.00 to 7.00.

The record behind these values is patent US20190127366A1 (LifeSci Pharmaceuticals, Inc., priority 2015, published 2019).
